For one molecule, IC50 results are on record in PMC11052001, “A Novel IRAK4 Inhibitor DW18134 Ameliorates Peritonitis and Inflammatory Bowel Disease” (Molecules, 2024).

In the experiment the target is T1, IRAK4 (Homo sapiens, UniProt Q9NWZ3).
T1 sequence (Q9NWZ3 1-460): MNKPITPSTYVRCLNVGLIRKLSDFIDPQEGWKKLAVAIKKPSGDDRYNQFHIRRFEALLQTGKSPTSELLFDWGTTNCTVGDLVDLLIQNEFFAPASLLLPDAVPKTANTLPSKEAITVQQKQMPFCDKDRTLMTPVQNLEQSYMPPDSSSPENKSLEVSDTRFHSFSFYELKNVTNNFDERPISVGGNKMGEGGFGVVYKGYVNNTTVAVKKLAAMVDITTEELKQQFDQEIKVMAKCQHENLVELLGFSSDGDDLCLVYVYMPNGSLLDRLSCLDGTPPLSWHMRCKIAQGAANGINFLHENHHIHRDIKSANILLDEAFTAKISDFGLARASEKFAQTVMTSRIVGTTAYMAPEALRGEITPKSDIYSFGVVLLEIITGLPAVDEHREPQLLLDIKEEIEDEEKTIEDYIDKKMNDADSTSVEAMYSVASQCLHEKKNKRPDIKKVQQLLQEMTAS
The experiment is described as follows: enzymatic kinase activity assay. In kind it is biochemical. As to conditions: read-out: DW18134.

As to `CC1(C)Cc2cc(NC(=O)c3coc(-c4ccnc(N)c4)n3)c(-c3ccncc3)cc2O1` [DW18134], the IC50 was determined as 11.2 ± 2 nM.
